Earlier results, collected in patent US9737548B2, “Pharmaceutical formulations and uses thereof in the treatment of female sexual dysfunction” (EB IP LYBRIDO B.V., priority 2005, dated 2017).

Assays:
[1] = serum concentration
[2] = short-lasting peak formulation

Structure (SMILES) | Tmax [1] | time after administration at which peak serum level of testosterone is obtained [2] | time after which testosterone serum level is back to the level before administration [2]
COc1cc2nc(N3CCN(C(=O)c4ccco4)CC3)nc(N)c2cc1OC [prazosin] | 1 to 2 h |  | 
C[C@]12CC[C@H]3[C@@H](CCC4=CC(=O)CC[C@@]43C)[C@@H]1CC[C@@H]2O [testosterone, 17-β-hydroxyandrost-4-en-3-one] |  | 1 to 20 min | approximately 120 minutes
